According to patent US6406680B1, “X-ray contrast agents” (Nycomed Imaging AS, priority 1999, dated 2002):
Values after ≈ are worked out from the molar mass of the structure shown.

What was measured:
[1] = Aqueous solubility at 20° C.; type: physicochemical; settings: water
mice = settings: cited from earlier work

| SMILES | solubility [1] [mg/mL] | solubility ([1]; Table 1) [mg/mL] | toxicity (LD 50 in mice, intravenous) (mice) [mg/kg] |
| --- | --- | --- | --- |
| OCC(I)=CI [Compound 2, 2,3-Diiodo-2-propene-1-ol] | 3.91 (≈ 12.6 mM) | 0.391 (≈ 1.26 mM) |  |
| OCC(I)=C(I)I [Compound 3, 2,3,3-Triiodo-2-propene-1-ol] | 0.198 (≈ 0.454 mM) | 0.198 (≈ 0.454 mM) |  |
| OCC(O)COCC(I)=CI (centres unmarked) [Compound 5, 3-(2,3-Diiodo-2-propenyloxy)-propane-1,2-diol] | 18.4 (≈ 47.9 mM) | 18.4 (≈ 47.9 mM) |  |
| OCC(O)COCC(I)=C(I)I (centres unmarked) [Compound 6, 3-(2,3,3-Triiodo-2-propenyloxy)-propane-1,2-diol] | 0.5 (≈ 0.981 mM) | 0.5 (≈ 0.981 mM) |  |
| OCCOCC(I)=C(I)COCCO [Compound 9, 2,2′-[2,3-Diiodo-2-butene-1,4-diylbis(oxy)]-bis-ethanol] | 7.2 (≈ 16.8 mM) | 7.2 (≈ 16.8 mM) |  |
| OCC(I)=C(I)CO [Compound 12, 2,3-Diiodo-2-butene-1,4-diol] | 0.534 (≈ 1.57 mM) | 0.534 (≈ 1.57 mM) |  |
| OCC(I)=C(I)COCC(O)CO (centres unmarked) [Compound 13, 3-[(2,3-Diiodo-4-hydroxy-2-butenyl)oxy]-propane-1,2-diol] | > 1.2 | > 1200 |  |
| OCC(O)COCC(I)=C(I)COCC(O)CO (centres unmarked) [Compound 14, 3,3′-[2,3-Diiodo-2-butene-1,4-diylbis(oxy)]-bis-propane-1,2-diol] | > 1.2 | > 1200 |  |
| OCC(I)=C(I)C(I)=C(I)CO [Compound 16, 2,3,4,5-Tetraiodo-2,4-hexadiene-1,6-diol] | 0.183 (≈ 0.296 mM) | 0.183 (≈ 0.296 mM) |  |
| CC(=O)N(CC(O)CO)c1c(I)c(C(=O)NCC(O)CO)c(I)c(C(=O)NCC(O)CO)c1I (centres unmarked) [Iohexol, iohexol, reference compound] |  | > 1200 | 33700 |
